Key:
[1] = target: central benzodiazepine receptors (cerebral cortex); assay: Affinity to benzodiazepine receptors (inhibition of tritiated diazepam binding in cerebral cortex); settings: inhibition of specific binding of tritiated diazepam, read-out: Affinity to benzodiazepine receptors IC 50
Protocol: The affinity of compounds of formula I to the central benzodiazepine receptors was determined according to the method described in Life Science 20, 2101-2110 (1977) and Science 198, 849-851 (1977). According to this method, the inhibition of the binding of tritiated diazepam at the specific benzodiazepine receptors in the cerebral cortex by the respective test substances is ascertained. The IC50 ("50% inhibiting concentration") is that concentration of the respective test substance which brings about a 50 percent inhibition of the specific binding of the tritiated diazepam at the specific benzodiazepine receptors in the cerebral cortex.

[2] = system: diazepam effect in the pentetrazole test; assay: Antagonism of diazepam in the pentetrazole test; format: in vivo; settings: Mus musculus, po; mice; diazepam 5 mg/kg i.p. one hour before and compound p.o. 15 minutes before pentetrazole 120 mg/kg i.p.; read-out: Antagonism of diazepam ED 50
Protocol: This property was used to elaborate the test described hereinafter which permits the investigation of compounds capable of antagonizing the central properties of 1,4-benzodiazepines having tranquillizing activity.
(§1) The antagonistic activity of the compounds investigated, that is, their capability to counteract the effect of the diazepam in the pentetrazole test, is determined by counting the mice which suffer spasmodic seizures in this test. The ED50 denotes the amount of the respective test compound in mg/kg (p.o.) which in 50% of the animals counteracts the diazepam effect in the above test.

[3] = Acute toxicity, single oral administration to rats; settings: rat, in vivo, read-out: Toxicity LD 50
Source text: The results which have been obtained with representative members of the class of compound defined by formula I in the experiments described previously are compiled in the following Table. Moreover, the Table contains data concerning the acute toxicity of some of these compounds (LD50 in mg/kg in the case of single oral administration to rats).

[4] = system: pentetrazole-induced spasmodic seizures; assay: Antipentetrazole test (protection from pentetrazole seizures); format: in vivo; settings: Rattus norvegicus, po; female rats 60-80 g; p.o. 30 minutes before 120 mg/kg pentetrazole i.p.; 10 animals per dosage; Probit; read-out: Antipemtetrazole test ED 50
Protocol: The central properties of the compounds of formula I in accordance with the invention can be determined, for example, in the antipentetrazole animal model which is described hereinafter and which is generally recognized for recording anticonvulsant properties.
In this animal model, the compound under investigation is administered orally to female rats weighing 60-80 g and 30 minutes later there are administered i.p. 120 mg/kg of pentetrazole, which causes emprosthotonus and tonic stretchings of the fore and/or hind limbs in unprotected experimental animals 1-4 minutes after the injection. Ten experimental animals are used per dosage of test substance. After counting the protected experimental animals the ED50 is determined according to the Probit method. The ED50 is that dosage which protects 50% of the experimental animals from the spasmodic seizures caused by pentetrazole.

[5] = system: pentetrazole-induced spasmodic seizures; assay: Pentetrazole test, protection by diazepam; format: in vivo; settings: 5 mg/kg (i.p.) diazepam, supramaximal dosage; more than 900 mice
Protocol: as §1

Compound `C#Cc1ncn2c1CN(C)C(=O)c1c(Cl)cccc1-2` [A, 7-chloro-3-ethynyl-4,5-dihydro-5-methyl-6H-imidazo[1,5-a][1,4]benzodiazepin-6-one] has an IC50 [1] of 4.5 nM, an ED50 [2] of 0.24 mg/kg and an LD50 [3] of 312 to 625 mg/kg.
`C#Cc1ncn2c1CN(C)C(=O)c1cc(F)ccc1-2` [B, 3-ethynyl-8-fluoro-4,5-dihydro-5-methyl-6H-imidazo[1,5-a][1,4]benzodiazepine-6-one] showed an IC50 [1] of 24 nM, an ED50 [2] of 1.5 mg/kg and an LD50 [3] of 312 to 625 mg/kg.
Work on `CC#Cc1ncn2c1CN(C)C(=O)c1c(Cl)cccc1-2` [C, 7-chloro-4,5-dihydro-5-methyl-3-(1-propynyl)-6H-imidazo[1,5-a][1,4]benzodiazepin-6-one] yielded an IC50 [1] of 2.3 nM, an ED50 [2] of 0.36 mg/kg and an LD50 [3] greater than 5000 mg/kg.
For `C#Cc1ncn2c1[C@@H]1CCCN1C(=O)c1c(Cl)cccc1-2` [D, (S)-8-chloro-1-ethynyl-11,12,13,13a-tetrahydro-9H-imidazo[1,5-a]pyrrolo[2,1-c][1,4]benzodiazepin-9-one], the IC50 [1] was 2.4 nM, the ED50 [4] was 1.5 mg/kg and the ED50 [2] was greater than 50 mg/kg. It also gave an LD50 [3] greater than 4000 mg/kg.
For `CN1Cc2c(C#CC(C)(C)O)ncn2-c2cccc(Br)c2C1=O` [E, 7-bromo-4,5-dihydro-3-(3-hydroxy-3-methyl-1-butynyl)-5-methyl-6H-imidazo[1,5-a][1,4]benzodiazepin-6-one], the IC50 [1] was 2 nM, the ED50 [4] was 0.29 mg/kg and the LD50 [3] was 500 to 1000 mg/kg.
With `C=Cc1ncn2c1CN(C)C(=O)c1c(Cl)cccc1-2` [F, 7-chloro-4,5-dihydro-5-methyl-3-vinyl-6H-imidazo[1,5-a][1,4]benzodiazepin-6-one] the IC50 [1] was 7.6 nM, the ED50 [2] was 1.2 mg/kg and the LD50 [3] was 1250 to 2500 mg/kg.
In the case of `CN1C(=O)CN=C(c2ccccc2)c2cc(Cl)ccc21` [diazepam], the “protection from spasmodic seizures in the pentetrazole test” value [5] is reported as “protected all experimental animals from spasmodic seizures”.
